Patent US6844306B2, “Water-soluble, chlorhexidine-containing compositions and use thereof” (Degussa AG, priority 2000, dated 2005)

Legend:
[1] = cited from earlier work
[2] = Source text: Ion concentrations exceeding the maximum values established by the solubility product should lead to precipitations.

| bromide ions in saturated chlorhexidine bromide solution [2] | chlorhexidine dication in saturated chlorhexidine bromide solution [2] | Compound | water solubility [1] |
| --- | --- | --- | --- |
| – | – | CCCCCCCCCCCCCCCC[N+](C)(C)C.[Br-] [cetrimide, N-cetyl-N,N,N-trimethylammonium bromide] | approx. 67 g/l |
| ~450 mg per liter | approximately 1400 mg per liter | Br.Br.N=C(NCCCCCCNC(=N)NC(=N)Nc1ccc(Cl)cc1)NC(=N)Nc1ccc(Cl)cc1 [chlorhexidine dibromide] | – |
